Broadly, the IC50 is the midpoint of a concentration-inhibition curve. Read a low IC50 as greater potency.

The test system of test [1] is Coxsackievirus. The test is described as follows: Inhibitory concentration of compound against formation of Coxsackievirus B5 plaque in plaque reduction assay. Type of test: functional, organism-based. A general note: Plaques are areas of infected cells; plaque reduction assays count them against a control.
Test [2] deals with Echovirus. Briefly: Inhibitory concentration of compound against formation of Echovirus 9 virus plaque in plaque reduction assay. Type of test: functional, organism-based.
Test [3] deals with Echovirus. Briefly: Inhibitory concentration of compound against formation of Echovirus 29 virus plaque in plaque reduction assay. Type of test: functional, organism-based.
Test [4] relates to Coxsackievirus. Briefly: Inhibitory concentration of compound against formation of Coxsackievirus A16 plaque in plaque reduction assay. Type of test: functional, organism-based.
The subject of test [5] is Coxsackievirus. The test is described as follows: Inhibitory concentration of compound against formation of Coxsackievirus B3 plaque in plaque reduction assay. The class given is functional, organism-based.
The next test has as its system Human alphaherpesvirus 1. The test is described as follows: Inhibitory concentration of compound against formation of Herpes simplex virus 1 plaque in plaque reduction assay.
Test [6] relates to Coxsackievirus. Briefly: Inhibitory concentration of compound against formation of Coxsackievirus B1 plaque in plaque reduction assay. Type of test: functional, organism-based.
Test [7] deals with Human rhinovirus sp. The test is described as follows: Inhibitory concentration of compound against formation of Human rhinovirus 2 plaque in plaque reduction assay. Type of test: functional, organism-based.
A further test has as its system Influenza A virus. The test is described as follows: Inhibitory concentration of compound against formation of Influenza A virus (WSN) plaque in plaque reduction assay. The class given is functional, organism-based.
The subject of test [8] is Coxsackievirus. The test is described as follows: Inhibitory concentration of compound against formation of Coxsackievirus B4 plaque in plaque reduction assay. The class given is functional, organism-based.
Test [9] has as its system Human rhinovirus sp. The test is described as follows: Inhibitory concentration of compound against formation of Human rhinovirus 14 plaque in plaque reduction assay. Type of test: functional, organism-based.
Test [10] has as its system Coxsackievirus. Briefly: Inhibitory concentration of compound against formation of Coxsackievirus B6 plaque in plaque reduction assay. Type of test: functional, organism-based.
The subject of the next test is Influenza B virus. Briefly: Inhibitory concentration of compound against formation of Influenza A virus (HK) plaque in plaque reduction assay. Type of test: functional, organism-based.
Test [11] has as its system Coxsackievirus. The test is described as follows: Inhibitory concentration to prevent formation of Coxsackievirus B3 (CVB3) plaques. Type of test: functional, organism-based.
The next test concerns Rhabdomyosarcoma cell. The test is described as follows: Cytotoxic effect of compound towards human Rhabdomyosarcoma cell line was evaluated. The class given is functional, cell-based.
For test [12], the system named is Enterovirus. The test is described as follows: Inhibitory concentration to prevent formation of Enterovirus (EV 71) plaques. The class given is functional, organism-based.
Test [13] has as its system Coxsackievirus. The test is described as follows: Inhibitory concentration of compound against formation of Coxsackievirus A9 plaque in plaque reduction assay. The class given is functional, organism-based.
In test [14] the test system is Coxsackievirus. Briefly: Inhibitory concentration of compound against formation of Coxsackievirus A24 plaque in plaque reduction assay. The class given is functional, organism-based.
The subject of test [15] is Coxsackievirus. Briefly: Inhibitory concentration of compound against formation of Coxsackievirus B2 plaque in plaque reduction assay. The class given is functional, organism-based.
Test [16] relates to Coxsackievirus. The test is described as follows: Inhibitory concentration of compound against formation of Coxsackievirus A10 plaque in plaque reduction assay. Type of test: functional, organism-based.
For test [17], the system named is Enterovirus. Briefly: Inhibitory concentration of compound against formation of Enterovirus 71 (2231) genotype C plaque in plaque reduction assay. Type of test: functional, organism-based.
Test [18] has as its system Enterovirus. Briefly: Inhibitory concentration of compound against formation of Enterovirus 71 (1743) genotype B plaque in plaque reduction assay. Type of test: functional, organism-based.
The subject of test [19] is Enterovirus. The test is described as follows: Inhibitory concentration of compound against formation of Enterovirus 68 (EV 68) plaque in plaque reduction assay. The class given is functional, organism-based.
For test [20], the system named is Enterovirus. Briefly: Inhibitory concentration of compound against formation of Enterovirus 71 (BrCr) genotype A plaque in plaque reduction assay. The class given is functional, organism-based.

SMILES strings stand for the structures.

In the case of `O=C1N(CCCCCCOc2ccc(Br)cc2)CCN1c1ccncc1`, the IC50 with Coxsackievirus [1] is over 25000 nM; in the test with Echovirus [2], 2820 nM; in the test with Echovirus [3], over 25000 nM; in the test with Coxsackievirus [4], over 25000 nM; in the test with Coxsackievirus [5], over 25000 nM; with Human alphaherpesvirus 1, over 25000 nM. Further, the IC50 is over 25000 nM in the test with Coxsackievirus [6]; over 25000 nM in the test on Human rhinovirus sp. [7]; over 25000 nM in the test on Influenza A virus; over 25000 nM with Coxsackievirus [8]; 11600 nM with Human rhinovirus sp. [9]; over 25000 nM in the test on Coxsackievirus [10]. For the same compound, the IC50 with Influenza B virus was over 25000 nM.
As for `Cc1ccsc1C(c1c(C)noc1C)N1CCN(c2ncnc3c2cnn3-c2ccccc2)CC1` (stereo unspecified), the values for the IC50 with Coxsackievirus [11], in the test with Rhabdomyosarcoma cell and in the test with Enterovirus [12] were 81 nM, over 25000 nM and 650 nM, respectively.
For `c1ccc(C(c2nccs2)N2CCN(c3ncnc4c3cnn4-c3ccccc3)CC2)cc1` (stereo unspecified), the IC50 in the test on Coxsackievirus [11] was 110 nM; with Rhabdomyosarcoma cell it was over 25000 nM; with Enterovirus [12], 340 nM.
For `Clc1ccc(C(c2ccccc2)N2CCN(c3ncnc4c3cnn4-c3ccccc3)CC2)cc1` (stereo unspecified), the values for the half-inhibitory concentration (IC50) in the test with Coxsackievirus [11], in the test with Rhabdomyosarcoma cell and in the test on Enterovirus [12] were 260 nM, over 25000 nM and 1970 nM, respectively.
The matching figures for `FC(F)(F)c1ccc(C(c2ccccc2)N2CCN(c3ncnc4c3cnn4-c3ccccc3)CC2)cc1` (stereo unspecified): 300 nM, over 25000 nM and 1650 nM.
Turning to `c1ccc(-c2ccc(C(c3ccccc3)N3CCN(c4ncnc5c4cnn5-c4ccccc4)CC3)cc2)cc1` (stereo unspecified), the IC50 in the test on Coxsackievirus [11] was 310 nM; in the test with Rhabdomyosarcoma cell it was over 25000 nM; with Enterovirus [12], 1900 nM.
For `Brc1ccc(C(c2ccccc2)N2CCN(c3ncnc4c3cnn4-c3ccccc3)CC2)cc1` (stereo unspecified), the IC50 with Coxsackievirus [11] is 490 nM; with Rhabdomyosarcoma cell, over 25000 nM; with Enterovirus [12], 910 nM.
Take `c1ccc(C(c2ccco2)N2CCN(c3ncnc4c3cnn4-c3ccccc3)CC2)cc1` (stereo unspecified): the IC50 is 270 nM in the test with Coxsackievirus [11], over 25000 nM in the test with Rhabdomyosarcoma cell and 1250 nM in the test with Enterovirus [12].
For the compound `c1ccc(Cn2ncc3c(N4CCN(C(c5ccccc5)c5ccccc5)CC4)ncnc32)cc1`, the 50% inhibitory concentration (IC50) in the test with Coxsackievirus [11], in the test on Rhabdomyosarcoma cell and in the test with Enterovirus [12] was over 25000 nM in each case.
On to `Cc1ccsc1C(c1ccccc1)N1CCN(c2ncnc3c2cnn3-c2ccccc2)CC1` (stereo unspecified), for which the values for the IC50 with Coxsackievirus [11], in the test with Rhabdomyosarcoma cell and with Enterovirus [12] were 89 nM, over 25000 nM and 460 nM, respectively.
Turning to `c1ccc(C(c2ccccn2)N2CCN(c3ncnc4c3cnn4-c3ccccc3)CC2)cc1` (stereo unspecified), the IC50 in the test on Coxsackievirus [11] was 170 nM; with Rhabdomyosarcoma cell it was over 25000 nM; in the test on Enterovirus [12] it was 370 nM.
With `CCCn1ncc2c(N3CCN(C(c4ccccc4)c4ccccc4)CC3)ncnc21`, the half-inhibitory concentration (IC50) in the test on Coxsackievirus [11], in the test on Rhabdomyosarcoma cell and in the test on Enterovirus [12] was over 25000 nM in each case.
As for `Cc1ccccc1C(c1ccccc1)N1CCN(c2ncnc3c2cnn3-c2ccccc2)CC1` (stereo unspecified), the IC50 in the test on Coxsackievirus [11] was 310 nM; in the test with Rhabdomyosarcoma cell it was over 25000 nM; in the test on Enterovirus [12], 1980 nM.
For `c1ccc(C(c2cccnc2)N2CCN(c3ncnc4c3cnn4-c3ccccc3)CC2)cc1` (stereo unspecified), in that order: 530 nM, over 25000 nM and 4600 nM.
The matching figures for `CCn1ncc2c(N3CCN(C(c4ccccc4)c4ccccc4)CC3)ncnc21`: over 25000 nM, over 25000 nM and over 25000 nM.
`Cc1ccsc1C(c1ccccc1Br)N1CCN(c2ncnc3c2cnn3-c2ccccc2)CC1` (stereo unspecified): the IC50 in the test with Coxsackievirus [11] is 72 nM; with Rhabdomyosarcoma cell, over 25000 nM; in the test on Enterovirus [12], 320 nM.
As for `Cc1ccsc1C(c1ccccn1)N1CCN(c2ncnc3c2cnn3-c2ccccc2)CC1` (stereo unspecified), the concentration for half-maximal inhibition (IC50) was 63 nM with Coxsackievirus [11], over 25000 nM with Rhabdomyosarcoma cell and 360 nM with Enterovirus [12].
On to `c1ccc(C(c2ccncc2)N2CCN(c3ncnc4c3cnn4-c3ccccc3)CC2)cc1` (stereo unspecified), for which the half-inhibitory concentration (IC50) was 300 nM in the test with Coxsackievirus [11], over 25000 nM in the test with Rhabdomyosarcoma cell and 780 nM with Enterovirus [12].
In the case of `c1ccc(C(c2ccccc2)N2CCN(c3ncnc4c3cnn4-c3ccccc3)CC2)cc1`, the IC50 in the test with Coxsackievirus [11] is 150 nM; in the test with Coxsackievirus [1] it was 440 nM; in the test on Echovirus [2] it was 300 nM; in the test with Echovirus [3] it was over 25000 nM; in the test on Rhabdomyosarcoma cell, over 25000 nM; in the test with Coxsackievirus [13] it was 260 nM. The IC50 was 230 nM with Coxsackievirus [4]; 50 nM with Coxsackievirus [14]; 150 nM in the test with Coxsackievirus [5]; 80 nM in the test with Coxsackievirus [15]; over 25000 nM in the test with Human alphaherpesvirus 1; 390 nM with Coxsackievirus [16]. The IC50 in the test with Enterovirus [12] was 410 nM; with Coxsackievirus [6] (Coxsackievirus), 690 nM; in the test with Human rhinovirus sp. [7], over 25000 nM; in the test with Influenza A virus, over 25000 nM; in the test on Enterovirus [17], 520 nM; in the test on Coxsackievirus [8], 160 nM. The IC50 with Enterovirus [18] is 470 nM; in the test on Enterovirus [19], 180 nM; in the test on Enterovirus [20], 350 nM; in the test on Human rhinovirus sp. [9] it was over 25000 nM; in the test on Coxsackievirus [10], 940 nM; in the test on Influenza B virus, over 25000 nM.
Regarding `Cn1ncc2c(N3CCN(C(c4ccccc4)c4ccccc4)CC3)ncnc21`, the IC50 in the test with Coxsackievirus [11], in the test with Rhabdomyosarcoma cell and in the test on Enterovirus [12] was over 25000 nM each time.
In the case of `Cc1noc(C)c1C(c1ccccc1)N1CCN(c2ncnc3c2cnn3-c2ccccc2)CC1` (stereo unspecified), the IC50 in the test on Coxsackievirus [11] was 95 nM; in the test with Rhabdomyosarcoma cell, over 25000 nM; with Enterovirus [12], 580 nM.
For `Cc1ccccc1C(c1sccc1C)N1CCN(c2ncnc3c2cnn3-c2ccccc2)CC1` (stereo unspecified), in that order: 84 nM, over 25000 nM and 410 nM.
`N#Cc1cccc(C(c2ccccc2)N2CCN(c3ncnc4c3cnn4-c3ccccc3)CC2)c1` (stereo unspecified): the IC50 is 110 nM in the test on Coxsackievirus [11], over 25000 nM in the test on Rhabdomyosarcoma cell and 780 nM with Enterovirus [12].
Turning to `c1ccc(C(c2ccccc2)N2CCN(c3[nH]cnc4nncc3-4)CC2)cc1`, the IC50 with Coxsackievirus [11], in the test with Rhabdomyosarcoma cell and in the test with Enterovirus [12] was over 25000 nM throughout.
Consider `N#Cc1ccc(C(c2ccccc2)N2CCN(c3ncnc4c3cnn4-c3ccccc3)CC2)cc1` (stereo unspecified), for which the half-maximal inhibitory concentration (IC50) in the test on Coxsackievirus [11] is 180 nM; in the test with Rhabdomyosarcoma cell, over 25000 nM; in the test on Enterovirus [12], 940 nM.

Source of the values: ChEMBL document CHEMBL1146731, “Design, synthesis, and structure-activity relationships of pyrazolo[3,4-d]pyrimidines: a novel class of potent enterovirus inhibitors” (Bioorg Med Chem Lett, 2004).
